From publication PMC6416395, “B1.12: a novel peptide interacting with the extracellular loop of the EBV oncoprotein LMP1” (Scientific Reports, 2019)
Entries after “also recorded” stand apart in the source; their conditions may differ. Residues, ends and D or L forms follow the SMILES beside them.

Legend:
[1] = tested on: B1 peptide (first extracellular loop of LMP1); assay: NMR titration of B1/B1.12 interaction; format: binding, Epstein-Barr virus (EBV); settings: H2O/D2O (90:10), 500 MHz
Procedure: The NMR experiments samples were prepared in 500 μL of H2O/D2O (90:10); using 1 mM of B1 peptide and 21 mM of B1.12 peptide. Titration experiment was also performed with varying the B1:B1.12 proportions (1:1; 3:1; 5:1; 7:1; 9:1). The NMR experiments were recorded on a Bruker spectrometer 500 MHz equipped with a TCI cryoprobe. Acquisition was performed with water suppression with excitation sculpting pulse sequence.

C666.1 cells = assay: MTT cell viability, C666.1; format: cell-based; settings: increasing concentration to 200 µM, 48 h
Procedure: Three cell lines were used: C666-1 which is a native EBV-infected NPC-derived cell line constitutively expressing LMP1, HeLa cells transfected with native vector (Gpt) or harboring the cDNA encoding LMP1, and HT-29 which is a human colon cancer cell line All cells were maintained in RPMI medium 1640 supplemented with 5% (V/V) FBS (Gibco), 4 µg/mL Gentamycine and 2 mM L-glutamine at 37 °C in a humidified atmosphere of 5% CO2. These cell lines were kindly provided by Pr P. Busson (IGR-France).
Cells were plated into 96-well plates until 80% confluent and then treated with different concentrations of B1.12 peptide (100, 200, 300 and 400 µM). After 48 hours of incubation, 20 μL MTT (5 mg/mL) were added to each well. After 4 hours, 100 μL dimethyl sulfoxide (DMSO) was added to each well, and absorbance was measured at […] using a Varioskan™ Flash Multimode Reader (Thermofisher Scientific). The percentage of cell viability was calculated using this formula:(OD590 nm of treated cells/OD590 nm of untreated cells) × 100.

[2] = tested on: B1 peptide (first extracellular loop of LMP1); assay: ITC of B1/B1.12 interaction; format: binding, Epstein-Barr virus (EBV); settings: 30 °C, NaHCO3 buffer 0.1 M pH 5.7
Procedure: For ITC, analysis was performed at 30 °C using an isothermal titration calorimeter (VP-ITC, LLC Microcal Inc., Northampton, MA, USA). Peptides were suspended in NaHCO3 buffer (0.1 M, pH 5.7, after 2 hours of sample equilibration) and the reference cell was filled with the same buffer. B1 peptide (0.2 mM) was placed into 250 μL syringe and 1200 μL of B1.12 peptide (0.01 mM) was placed in the titration cell. The peptide solution was injected into the stirred sample cell containing B1.12 peptide in >20 injections (2 μL per injection) by a computer-controlled pump. The injection lasted 10 seconds with an interval of 120 seconds between successive injections. Heat released with each injection was measured (Differential Potential in µCal/sec) by the calorimeter in dynamic correction mode. Control experiments were performed by tittering the B1 peptide into the buffer solution at the same pH and concentrations with and without the B1 peptide, in order to discriminate the interaction process against the dilution of B1 and its possible self-association, respectively.

Compound: CC(C)C[C@H](NC(=O)[C@H](CC(=O)O)NC(=O)[C@H](CC(C)C)NC(=O)[C@@H]1CCCN1C(=O)[C@H](CS)NC(=O)[C@H](C)N)C(=O)N[C@@H](CCCNC(=N)N)C(=O)N[C@@H](CO)C(=O)N1CCC[C@H]1C(=O)N[C@@H](CS)C(=O)NCC(N)=O [B1.12] (H-ACPLDLRSPCG-NH2; N-terminus and C-terminus assumed)
- binding to target B1 (NMR) ([1]; 1 mM B1, 21 mM B1.12): bound specifically to its target B1
- B1 residues showing chemical shift variation ([1]; B1:B1.12 titration 1:1 to 9:1): Met2, Trp5 and Thr6; also recorded: Met^2, Trp^5 and Thr^6
- cell viability (in words) (C666.1 cells): gradually decreases with increasing peptide concentration
- number of injections after which exothermic binding reaction ceases ([2]; 2 μL injections of B1 0.2 mM into B1.12 0.01 mM): nineteen
- binding to target B1 (ITC) ([2]; B1 0.2 mM injected into B1.12 0.01 mM): ITC profile confirmed the binding of the B1.12 peptide to its target B1 peptide
